Test results: ChEMBL document CHEMBL4387741, “Optimization of novel reversible Bruton's tyrosine kinase inhibitors identified using Tethering-fragment-based screens” (Bioorg Med Chem, 2019)

Tests used:
[1] = system: Tyrosine-protein kinase ABL1 (Homo sapiens), P00519 [T315I]; assay: Inhibition of human phosphorylated ABL1 T315I mutant (S229 to K512 residues) expressed in mammalian expression system at 1 uM by Kinomescan method relative to control
[2] = target: Calcium/calmodulin-dependent protein kinase type IV (Homo sapiens) (UniProt Q16566); assay: Inhibition of wild-type human partial length CAMK4 (A22 to A322 residues) expressed in bacterial expression system at 1 uM by Kinomescan method relative to control
[3] = target: Dual specificity protein kinase CLK3 (Homo sapiens) (UniProt P49761); assay: Inhibition of wild-type human full length CLK3 (M1 to R490 residues) expressed in bacterial expression system at 1 uM by Kinomescan method relative to control
[4] = target: Casein kinase I isoform gamma-1 (Homo sapiens) (UniProt Q9HCP0); assay: Inhibition of wild-type human partial length CSNK1G1 (T15 to S353 residues) expressed in bacterial expression system at 1 uM by Kinomescan method relative to control
[5] = target: Ephrin type-A receptor 1 (Homo sapiens) (UniProt P21709); assay: Inhibition of wild-type human partial length EPHA1 (V588 to I913 residues) expressed in bacterial expression system at 1 uM by Kinomescan method relative to control
[6] = target: Inhibitor of nuclear factor kappa-B kinase subunit alpha (Homo sapiens) (UniProt O15111); assay: Inhibition of wild-type human full length IKK-alpha (M1 to E745 residues) expressed in mammalian expression system at 1 uM by Kinomescan method relative to control
[7] = target: Inhibitor of nuclear factor kappa-B kinase subunit epsilon (Homo sapiens) (UniProt Q14164); assay: Inhibition of wild-type human full length IKK-epsilon (M1 to V716 residues) expressed in mammalian expression system at 1 uM by Kinomescan method relative to control
[8] = system: Leucine-rich repeat serine/threonine-protein kinase 2 (Homo sapiens), Q5S007 [G2019S]; assay: Inhibition of human partial length LRRK2 G2019S mutant (H970 to E2527 residues) expressed in mammalian expression system at 1 uM by Kinomescan method relative to control
[9] = target: Mitogen-activated protein kinase kinase kinase kinase 4 (Homo sapiens) (UniProt O95819); assay: Inhibition of wild-type human partial length MAP4K4 (M1 to R310 residues) expressed in bacterial expression system at 1 uM by Kinomescan method relative to control
[10] = target: Tyrosine-protein kinase Mer (Homo sapiens) (UniProt Q12866); assay: Inhibition of wild-type human partial length MERTK (R557 to L884 residues) expressed in bacterial expression system at 1 uM by Kinomescan method relative to control
[11] = system: Phosphatidylinositol 4,5-bisphosphate 3-kinase catalytic subunit alpha isoform (Homo sapiens), P42336 [H1047Y]; assay: Inhibition of human partial length PIK3CA H1047Y mutant (R108 to N1068 residues) expressed in mammalian expression system at 1 uM by Kinomescan method relative to control
[12] = target: SRSF protein kinase 1 (Homo sapiens) (UniProt Q96SB4); assay: Inhibition of wild-type human full length SRPK1 (M1 to S655 residues) expressed in bacterial expression system at 1 uM by Kinomescan method relative to control
[13] = target: SRSF protein kinase 2 (Homo sapiens) (UniProt P78362); assay: Inhibition of wild-type human full length SRPK2 (M1 to S686 residues) expressed in bacterial expression system at 1 uM by Kinomescan method relative to control
[14] = target: Vascular endothelial growth factor receptor 2 (Homo sapiens) (UniProt P35968); assay: Inhibition of wild-type human partial length VEGFR2 (R787 to P1253 residues) expressed in mammalian expression system at 1 uM by Kinomescan method relative to control
[15] = Protein binding in human plasma assessed as unbound fraction at 2 uM by rapid equilibrium dialysis method; assay type: ADME, cell-free
[16] = Volume of distribution at steady state in Sprague-Dawley rat at 1 mg/kg, iv; assay type: ADME, organism-based; conditions: in vivo, read-out: Vdss
[17] = target: Mitogen-activated protein kinase kinase kinase 6 (Homo sapiens) (UniProt O95382); assay: Inhibition of wild-type human partial length ASK2 (M278 to R972 residues) expressed in mammalian expression system at 10 uM by Kinomescan method relative to control
[18] = target: Protein-tyrosine kinase 6 (Homo sapiens) (UniProt Q13882); assay: Inhibition of wild-type human partial length BRK (L166 to T451 residues) expressed in bacterial expression system at 10 uM by Kinomescan method relative to control
[19] = target: Cyclin-dependent kinase 5 (Homo sapiens) (UniProt Q00535); assay: Inhibition of wild-type human full length CDK5 (M1 to P292 residues) expressed in bacterial expression system at 10 uM by Kinomescan method relative to control
[20] = target: Dual specificity protein kinase CLK1 (Homo sapiens) (UniProt P49759); assay: Inhibition of wild-type human full length CLK1 (M1 to I484 residues) expressed in bacterial expression system at 10 uM by Kinomescan method relative to control
[21] = target: Tyrosine-protein kinase CSK (Homo sapiens) (UniProt P41240); assay: Inhibition of wild-type human full length CSK (M1 to L450 residues) expressed in bacterial expression system at 10 uM by Kinomescan method relative to control
[22] = target: Serine/threonine-protein kinase DCLK1 (Homo sapiens) (UniProt O15075); assay: Inhibition of wild-type human partial length DCAMKL1 (L270 to A662 residues) expressed in mammalian expression system at 10 uM by Kinomescan method relative to control
[23] = target: Serine/threonine-protein kinase 17B (Homo sapiens) (UniProt O94768); assay: Inhibition of wild-type human full length DRAK2 (M1 to C372 residues) expressed in bacterial expression system at 10 uM by Kinomescan method relative to control
[24] = target: Ephrin type-B receptor 1 (Homo sapiens) (UniProt P54762); assay: Inhibition of wild-type human partial length EPHB1 (P589 to T911 residues) expressed in bacterial expression system at 10 uM by Kinomescan method relative to control
[25] = target: Focal adhesion kinase 1 (Homo sapiens) (UniProt Q05397); assay: Inhibition of wild-type human partial length FAK (D402 to R696 residues) expressed in bacterial expression system at 10 uM by Kinomescan method relative to control
[26] = system: Receptor-type tyrosine-protein kinase FLT3 (Homo sapiens), P36888 [D835V]; assay: Inhibition of human partial length FLT3 D835V mutant (V592 to Y969 residues) expressed in bacterial expression system at 10 uM by Kinomescan method relative to control
[27] = system: Receptor-type tyrosine-protein kinase FLT3 (Homo sapiens), P36888 [UNDEFINED MUTATION]; assay: Inhibition of human partial length FLT3 ITD mutant expressed in bacterial expression system at 10 uM by Kinomescan method relative to control
[28] = target: Mitogen-activated protein kinase 14 (Homo sapiens) (UniProt Q16539); assay: Inhibition of wild-type human full length p38-alpha (M1 to S360 residues) expressed in bacterial expression system at 10 uM by Kinomescan method relative to control
Sequence of Mitogen-activated protein kinase 14 (Homo sapiens) (Q16539 whole entry, the tested form may be a part): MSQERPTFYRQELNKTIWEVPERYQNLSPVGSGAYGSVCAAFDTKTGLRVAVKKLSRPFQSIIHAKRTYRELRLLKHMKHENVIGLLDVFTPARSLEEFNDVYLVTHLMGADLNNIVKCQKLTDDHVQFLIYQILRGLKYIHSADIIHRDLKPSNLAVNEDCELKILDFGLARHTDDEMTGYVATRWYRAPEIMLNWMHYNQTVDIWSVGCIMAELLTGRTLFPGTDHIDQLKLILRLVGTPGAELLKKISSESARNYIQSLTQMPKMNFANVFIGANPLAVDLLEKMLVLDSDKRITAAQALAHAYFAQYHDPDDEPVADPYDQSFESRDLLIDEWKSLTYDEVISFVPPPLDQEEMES

Sequence of Calcium/calmodulin-dependent protein kinase type IV (Homo sapiens) (Q16566 whole entry, the tested form may be a part): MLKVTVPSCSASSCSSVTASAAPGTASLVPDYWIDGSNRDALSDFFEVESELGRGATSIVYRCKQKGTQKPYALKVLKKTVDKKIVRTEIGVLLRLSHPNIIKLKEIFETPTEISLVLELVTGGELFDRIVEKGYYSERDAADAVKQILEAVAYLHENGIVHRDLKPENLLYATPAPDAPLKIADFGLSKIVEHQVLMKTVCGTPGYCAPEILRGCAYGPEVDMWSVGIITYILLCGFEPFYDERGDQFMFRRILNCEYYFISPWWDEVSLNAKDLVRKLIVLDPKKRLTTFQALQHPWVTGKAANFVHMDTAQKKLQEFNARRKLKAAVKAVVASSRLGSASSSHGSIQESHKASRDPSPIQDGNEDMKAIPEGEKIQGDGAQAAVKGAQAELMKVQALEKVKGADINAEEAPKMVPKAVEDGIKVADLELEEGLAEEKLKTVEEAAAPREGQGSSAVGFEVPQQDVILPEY
Sequence of Tyrosine-protein kinase CSK (Homo sapiens) (P41240 2-450 limits assumed): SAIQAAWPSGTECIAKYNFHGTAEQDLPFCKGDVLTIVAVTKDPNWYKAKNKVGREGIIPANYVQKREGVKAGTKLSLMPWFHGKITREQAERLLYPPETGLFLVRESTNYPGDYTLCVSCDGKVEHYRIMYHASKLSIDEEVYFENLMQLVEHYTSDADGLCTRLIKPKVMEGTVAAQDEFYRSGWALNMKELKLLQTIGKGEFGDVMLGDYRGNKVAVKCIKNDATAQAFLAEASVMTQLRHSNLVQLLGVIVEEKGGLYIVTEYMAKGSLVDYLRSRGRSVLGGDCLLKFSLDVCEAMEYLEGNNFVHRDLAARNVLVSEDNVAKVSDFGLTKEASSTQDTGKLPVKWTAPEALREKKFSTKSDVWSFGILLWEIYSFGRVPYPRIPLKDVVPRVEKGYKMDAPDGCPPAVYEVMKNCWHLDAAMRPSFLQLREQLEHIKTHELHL
Sequence of Serine/threonine-protein kinase DCLK1 (Homo sapiens) (O15075 whole entry, the tested form may be a part): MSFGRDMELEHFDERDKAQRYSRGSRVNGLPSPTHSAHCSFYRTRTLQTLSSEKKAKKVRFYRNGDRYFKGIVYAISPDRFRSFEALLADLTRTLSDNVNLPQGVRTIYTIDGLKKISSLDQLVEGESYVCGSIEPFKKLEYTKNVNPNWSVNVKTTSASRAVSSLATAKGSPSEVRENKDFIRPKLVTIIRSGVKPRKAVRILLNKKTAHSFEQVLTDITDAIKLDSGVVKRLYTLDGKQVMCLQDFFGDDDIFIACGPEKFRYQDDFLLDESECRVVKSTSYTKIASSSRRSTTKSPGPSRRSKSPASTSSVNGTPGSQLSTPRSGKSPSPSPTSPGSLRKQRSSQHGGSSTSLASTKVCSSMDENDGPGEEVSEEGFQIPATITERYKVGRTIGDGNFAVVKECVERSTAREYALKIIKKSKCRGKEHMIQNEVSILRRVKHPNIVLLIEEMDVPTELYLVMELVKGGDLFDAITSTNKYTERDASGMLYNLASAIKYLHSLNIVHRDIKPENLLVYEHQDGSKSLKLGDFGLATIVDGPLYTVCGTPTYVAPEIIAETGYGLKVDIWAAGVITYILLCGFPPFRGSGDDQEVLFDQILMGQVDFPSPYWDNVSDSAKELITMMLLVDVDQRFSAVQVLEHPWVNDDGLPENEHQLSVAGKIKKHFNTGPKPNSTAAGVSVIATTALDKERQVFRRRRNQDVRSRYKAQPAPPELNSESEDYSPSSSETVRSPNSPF
Sequence of Leucine-rich repeat serine/threonine-protein kinase 2 (Homo sapiens), Q5S007 [G2019S] (Q5S007 whole entry G2019S, the tested form may be a part): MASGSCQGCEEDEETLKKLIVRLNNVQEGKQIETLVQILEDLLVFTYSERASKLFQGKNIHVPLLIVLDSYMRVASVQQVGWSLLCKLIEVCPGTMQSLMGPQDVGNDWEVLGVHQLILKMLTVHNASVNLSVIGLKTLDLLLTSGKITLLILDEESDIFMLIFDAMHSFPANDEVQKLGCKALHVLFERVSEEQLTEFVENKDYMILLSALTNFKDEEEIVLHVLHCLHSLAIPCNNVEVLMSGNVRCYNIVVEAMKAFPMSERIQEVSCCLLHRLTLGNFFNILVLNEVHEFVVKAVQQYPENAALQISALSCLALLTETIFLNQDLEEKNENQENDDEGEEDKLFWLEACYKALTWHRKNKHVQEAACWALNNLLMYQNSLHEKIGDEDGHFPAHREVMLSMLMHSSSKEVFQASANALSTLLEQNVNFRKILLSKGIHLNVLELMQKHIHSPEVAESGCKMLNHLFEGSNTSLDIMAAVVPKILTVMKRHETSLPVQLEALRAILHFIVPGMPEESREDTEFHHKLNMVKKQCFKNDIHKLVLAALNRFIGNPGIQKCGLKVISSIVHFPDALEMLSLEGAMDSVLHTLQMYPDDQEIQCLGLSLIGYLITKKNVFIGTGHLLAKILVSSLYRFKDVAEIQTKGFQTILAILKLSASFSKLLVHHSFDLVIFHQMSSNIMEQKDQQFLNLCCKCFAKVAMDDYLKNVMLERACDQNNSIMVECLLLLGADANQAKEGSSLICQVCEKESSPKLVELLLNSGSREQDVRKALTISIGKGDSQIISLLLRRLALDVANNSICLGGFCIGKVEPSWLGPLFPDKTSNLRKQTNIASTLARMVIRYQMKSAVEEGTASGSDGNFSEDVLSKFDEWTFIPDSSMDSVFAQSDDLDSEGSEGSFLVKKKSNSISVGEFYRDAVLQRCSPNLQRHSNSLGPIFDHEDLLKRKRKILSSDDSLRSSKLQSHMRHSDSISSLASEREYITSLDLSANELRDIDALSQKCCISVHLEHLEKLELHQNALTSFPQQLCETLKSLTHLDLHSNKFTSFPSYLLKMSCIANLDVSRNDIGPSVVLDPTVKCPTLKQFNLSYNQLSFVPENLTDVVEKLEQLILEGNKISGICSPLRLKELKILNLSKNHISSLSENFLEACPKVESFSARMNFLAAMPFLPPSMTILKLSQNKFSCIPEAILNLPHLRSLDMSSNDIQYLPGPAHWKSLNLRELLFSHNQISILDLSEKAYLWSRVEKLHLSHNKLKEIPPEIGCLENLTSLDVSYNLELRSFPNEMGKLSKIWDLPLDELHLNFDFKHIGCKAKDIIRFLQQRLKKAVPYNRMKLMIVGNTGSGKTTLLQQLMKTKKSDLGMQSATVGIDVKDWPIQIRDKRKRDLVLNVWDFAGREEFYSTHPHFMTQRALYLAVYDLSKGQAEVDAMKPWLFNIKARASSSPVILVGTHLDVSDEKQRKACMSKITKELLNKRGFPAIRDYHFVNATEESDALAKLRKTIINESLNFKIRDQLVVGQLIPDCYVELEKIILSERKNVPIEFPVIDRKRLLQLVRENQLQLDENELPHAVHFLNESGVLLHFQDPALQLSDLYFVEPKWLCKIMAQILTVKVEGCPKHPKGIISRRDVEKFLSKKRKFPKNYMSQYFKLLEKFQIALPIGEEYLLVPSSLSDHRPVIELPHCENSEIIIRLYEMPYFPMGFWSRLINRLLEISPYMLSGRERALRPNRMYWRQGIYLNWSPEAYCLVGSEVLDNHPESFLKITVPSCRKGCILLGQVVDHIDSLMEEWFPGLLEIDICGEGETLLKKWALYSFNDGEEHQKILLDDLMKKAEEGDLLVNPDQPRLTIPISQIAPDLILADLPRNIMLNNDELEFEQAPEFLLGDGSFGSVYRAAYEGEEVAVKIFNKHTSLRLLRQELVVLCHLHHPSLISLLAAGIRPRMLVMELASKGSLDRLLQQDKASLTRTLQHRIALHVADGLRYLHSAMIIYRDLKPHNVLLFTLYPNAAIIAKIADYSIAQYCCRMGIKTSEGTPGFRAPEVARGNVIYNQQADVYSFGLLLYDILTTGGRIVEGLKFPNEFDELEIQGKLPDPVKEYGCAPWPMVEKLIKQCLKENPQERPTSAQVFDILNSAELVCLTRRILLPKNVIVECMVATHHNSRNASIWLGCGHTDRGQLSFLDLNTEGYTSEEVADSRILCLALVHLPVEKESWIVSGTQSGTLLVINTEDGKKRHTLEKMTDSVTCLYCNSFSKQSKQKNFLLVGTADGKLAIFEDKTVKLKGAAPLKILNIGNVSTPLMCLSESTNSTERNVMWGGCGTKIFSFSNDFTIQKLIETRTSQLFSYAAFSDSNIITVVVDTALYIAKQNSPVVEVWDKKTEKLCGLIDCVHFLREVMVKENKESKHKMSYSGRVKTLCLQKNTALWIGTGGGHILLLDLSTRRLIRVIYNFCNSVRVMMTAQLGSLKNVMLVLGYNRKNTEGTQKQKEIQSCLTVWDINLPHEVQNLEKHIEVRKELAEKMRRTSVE
Sequence of Protein-tyrosine kinase 6 (Homo sapiens) (Q13882 whole entry, looked up, the tested form may be a part): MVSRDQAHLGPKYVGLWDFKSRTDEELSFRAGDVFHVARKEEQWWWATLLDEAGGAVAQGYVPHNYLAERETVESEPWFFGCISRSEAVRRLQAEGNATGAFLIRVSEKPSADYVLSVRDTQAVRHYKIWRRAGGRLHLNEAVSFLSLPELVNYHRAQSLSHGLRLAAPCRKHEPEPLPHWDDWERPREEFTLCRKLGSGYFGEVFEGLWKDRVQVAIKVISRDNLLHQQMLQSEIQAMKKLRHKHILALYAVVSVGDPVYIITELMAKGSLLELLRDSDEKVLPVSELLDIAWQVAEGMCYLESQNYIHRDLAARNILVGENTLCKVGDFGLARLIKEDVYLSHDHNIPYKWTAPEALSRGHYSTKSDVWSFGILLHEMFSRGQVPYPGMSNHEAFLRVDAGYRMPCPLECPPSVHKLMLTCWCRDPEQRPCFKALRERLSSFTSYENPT

O=C(Nc1cccc([C@@H]2CN(c3ncnc4[nH]ccc34)CCN2CCO)c1)Nc1c(F)cccc1N1CCCC1
inhibition [1]: 93%
inhibition [2]: 100%
inhibition [3]: 94%
inhibition [4]: 100%
inhibition [5]: 100%
inhibition [6]: 78%
inhibition [7]: 96%
inhibition [8]: 100%
inhibition [9]: 100%
inhibition [10]: 31%
inhibition [11]: 53%
inhibition [12]: 37%
inhibition [13]: 88%
inhibition [14]: 30%
Fu [15]: 1%
Vd [16]: 0.21 L/kg

O=C(Nc1cccc([C@H]2CCCN(c3ncnc4[nH]ccc34)C2)c1)Nc1ccccc1N1CCCC1
inhibition [17]: 73%
inhibition [18]: 100%
inhibition [19]: 92%
inhibition [20]: 68%
inhibition [21]: 83%
inhibition [22]: 52%
inhibition [23]: 74%
inhibition [24]: 100%
inhibition [25]: 90%
inhibition [26]: 4.3%
inhibition [27]: 8.5%
inhibition [28]: 100%
